# How the values were obtained:
# [1] = Kinetic thiol consumption assay with model thiol glutathione; assay type: physicochemical; set-up: Rate constant with glutathione (k(GSH)): unit not given here; conditions: for Rate constant with glutathione (k(GSH)): 500 μM ligand, 5 μM thiol, phosphate buffer pH 8; for Rate constant with Glutathione: Protein: Glutathione, cysteine position NA, in h-1
# Procedure, shortened: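 First, 5 μM glutathione in degassed phosphate buffer (pH 8) receives immobilized TCEP beads (2% v/v). Then acrylamide is added and plates incubate 1 h at room temperature. Finally, fluorescence (380/470 nm) is normalized and fitted to first-order decay for rate constants.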
# [2] = target: T1, human cyclin-dependent kinase 2 (Cdk2) (Homo sapiens, UniProt P24941); experiment: Kinetic thiol consumption assay with wild type Cdk2 (C177); assay type: binding; set-up: key to Rate enhancement, Cdk2 WT: k(Cdk2) divided by k(model thiol); Rate constant with Cdk2 (k(Cdk2)): unit not given here; conditions: for Rate constant with Cdk2 (k(Cdk2)): 500 μM ligand, 5 μM thiol, phosphate buffer pH 8; for Rate enhancement, Cdk2 WT: no additional mutations; for Rate constant with Cdk2 WT: Protein: Cdk2, cysteine position WT, in h^-1; for k(Cdk2)/k(Cdk2_mut) rate enhancement: model thiol Cdk2[C177A, F80C, K278C]; for k(Cdk2)/k(GSH) rate enhancement: model thiol glutathione
# T1 construct: poly-histidine; made in house; host or cells: E. coli
# Procedure, shortened: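 Rate constants came from first-order exponential decay fits of normalized fluorescence against time, with thiol (5 μM) in degassed pH 8 phosphate buffer containing 2% v/v TCEP beads and reads after 1 h at room temperature.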
# Cdk2[C177A, F80C, K278C] = target: T2, Cdk2[C177A, F80C, K278C] (Homo sapiens, UniProt P24941, C177A/F80C/K278C); experiment: Kinetic thiol consumption assay with mutant Cdk2 as model thiol; assay type: binding; set-up: unit not given here; conditions: 500 μM ligand, 5 μM thiol, phosphate buffer pH 8
# T2 construct: poly-histidine; made in house; host or cells: E. coli
# Procedure, shortened: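 First-order rate constants were derived by exponential-decay fitting of DMSO/thiol-normalized fluorescence (380/470 nm) over time at room temperature. Thiol was 5 μM E. coli-expressed His-tagged Cdk2 mutant C177A/F80C/K278C in degassed pH 8 phosphate buffer containing 2% v/v TCEP beads.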
# Cdk2(C177A, F80C) = target: T3, Cdk2(C177A, F80C) (Homo sapiens, UniProt P24941, C177A/F80C); experiment: Kinetic thiol consumption assay with Cdk2 mutant F80C, incl. kobs versus concentration (Kd, k2); assay type: binding; set-up: key to Rate enhancement, Cdk2 F80C: Cdk2 rate constant divided by model-thiol rate constant; conditions: additional mutation C177A; for Rate constant with Cdk2 F80C: Protein: Cdk2, cysteine position F80C, in h^-1
# T3 construct: poly-histidine; made in house; host or cells: E. coli
# Procedure, shortened: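 His-tagged Cdk2(C177A/F80C) from E. coli or model thiol, 5 μM in degassed phosphate buffer pH 8 with TCEP beads, reacted with acrylamide ligands; fluorescence (ex/em 380/470 nm) normalized to DMSO control and fitted to first-order decay for kobs. Kd and k2 obtained from hyperbolic fit of kobs versus ligand concentration.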
# Cdk2(H71C) (C177A) = target: T4, Cdk2(H71C) (C177A) (Homo sapiens, UniProt P24941, C177A/H71C); experiment: Kinetic thiol consumption assay with Cdk2 mutant H71C; assay type: binding; set-up: key to Rate enhancement, Cdk2 H71C: rate constant with Cdk2 ÷ rate constant with model thiol (fold); conditions: additional mutation C177A; for Rate constant with Cdk2 H71C: Protein: Cdk2, cysteine position H71C, in h^-1
# T4 construct: poly-histidine; made in house; host or cells: E. coli
# Procedure, shortened: (§1)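 Thiol consumption was monitored kinetically using 5 μM Cdk2 (C177A plus one introduced cysteine) in degassed phosphate buffer at pH 8 with TCEP beads. Plates were kept 1 h at room temperature before fluorescence reading, and rate constants came from exponential decay fitting.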
# Cdk2(S276C) (C177A) = target: T5, Cdk2(S276C) (C177A) (Homo sapiens, UniProt P24941, C177A/S276C); experiment: Kinetic thiol consumption assay with Cdk2 mutant S276C; assay type: binding; set-up: key to Rate enhancement, Cdk2 S276C: rate constant with Cdk2 ÷ rate constant with model thiol (fold); conditions: additional mutation C177A; for Rate constant with Cdk2 S276C: Protein: Cdk2, cysteine position S276C, in h^-1
# T5 construct: poly-histidine; made in house; host or cells: E. coli
# Procedure, shortened: as §1
# Cdk2(N272C) (C177A) = target: T6, Cdk2(N272C) (C177A) (Homo sapiens, UniProt P24941, C177A/N272C); experiment: Kinetic thiol consumption assay with Cdk2 mutant N272C; assay type: binding; set-up: key to Rate enhancement, Cdk2 N272: rate constant with Cdk2 ÷ rate constant with model thiol (fold); conditions: for Rate enhancement, Cdk2 N272: Cdk2 N272, additional mutation C177A; for Rate constant with Cdk2 N272C: Protein: Cdk2, cysteine position N272C, additional mutation C177A, in h^-1
# T6 construct: poly-histidine; made in house; host or cells: E. coli
# Procedure, shortened: as §1
# Cdk2(T182C) (C177A) = target: T7, Cdk2(T182C) (C177A) (Homo sapiens, UniProt P24941, C177A/T182C); experiment: Kinetic thiol consumption assay with Cdk2 mutant T182C; assay type: binding; set-up: key to Rate enhancement, Cdk2 T182C: rate constant with Cdk2 ÷ rate constant with model thiol (fold); conditions: additional mutation C177A; for Rate constant with Cdk2 T182C: Protein: Cdk2, cysteine position T182C, in h^-1
# T7 construct: poly-histidine; made in house; host or cells: E. coli
# Procedure, shortened: as §1
# Cdk2(R122C) (C177A) = target: T8, Cdk2(R122C) (C177A) (Homo sapiens, UniProt P24941, C177A/R122C); experiment: Kinetic thiol consumption assay with Cdk2 mutant R122C; assay type: binding; set-up: key to Rate enhancement, Cdk2 R122C: rate constant with Cdk2 ÷ rate constant with model thiol (fold); conditions: additional mutation C177A; for Rate constant with Cdk2 R122C: Protein: Cdk2, cysteine position R122C, in h-1
# T8 construct: poly-histidine; made in house; host or cells: E. coli
# Procedure, shortened: as §1
# Cdk2(S181C) (C177A) = target: T9, Cdk2(S181C) (C177A) (Homo sapiens, UniProt P24941, C177A/S181C); experiment: Kinetic thiol consumption assay with Cdk2 mutant S181C; assay type: binding; set-up: key to Rate enhancement, Cdk2 S181C: rate constant with Cdk2 ÷ rate constant with model thiol (fold); conditions: additional mutation C177A; for Rate constant with Cdk2 S181C: Protein: Cdk2, cysteine position S181C, in h^-1
# T9 construct: poly-histidine; made in house; host or cells: E. coli
# Procedure, shortened: as §1
Structure (SMILES),Rate constant with Cdk2 (k(Cdk2)) [2],"Rate enhancement, Cdk2 WT [2]",Rate constant with Cdk2 WT [2],k(Cdk2)/k(Cdk2_mut) rate enhancement [2],k(Cdk2)/k(GSH) rate enhancement [2],"Rate constant with Cdk2[C177A, F80C, K278C] (k(Cdk2_mut)) (Cdk2[C177A, F80C, K278C])","Rate enhancement, Cdk2 F80C (Cdk2(C177A, F80C))","Rate enhancement, Cdk2 H71C (Cdk2(H71C) (C177A))","Rate enhancement, Cdk2 S276C (Cdk2(S276C) (C177A))",Rate constant with Cdk2 S276C (Cdk2(S276C) (C177A)),"Rate enhancement, Cdk2 N272 (Cdk2(N272C) (C177A))",Rate constant with Cdk2 N272C (Cdk2(N272C) (C177A)),"Rate enhancement, Cdk2 T182C (Cdk2(T182C) (C177A))",Rate constant with Cdk2 T182C (Cdk2(T182C) (C177A)),"Rate enhancement, Cdk2 R122C (Cdk2(R122C) (C177A))",Rate constant with Cdk2 R122C (Cdk2(R122C) (C177A)),"Rate enhancement, Cdk2 S181C (Cdk2(S181C) (C177A))",Rate constant with Cdk2 S181C (Cdk2(S181C) (C177A)),Rate constant with glutathione (k(GSH)) [1],Rate constant with Glutathione [1],further results
C=CC(=O)NCc1ccc(F)cc1 [BN-62],0.0019,1.86,0.002863,1.136,1.213,0.00167,0.6901,2.5393E−11,0.7693,0.001184,1.006,0.001549,0.679,0.001045,0.125,0.0001923,1.1306E−11,1.74E−14,0.00157,0.001539,"Rate constant with Cdk2 F80C (Cdk2(C177A, F80C)): 0.001062; Rate constant with Cdk2 H71C (Cdk2(H71C) (C177A)): 3.908E−14"
C=CC(=O)NCc1ccccc1 [CA-009],0.00446,2.404,0.01679,1.108,,0.00402,0.5029,0.2836,0.8186,0.005718,1.318,0.009206,21.57,0.1507,0.5794,0.004047,0.4707,0.003288,,0.006985,"Rate constant with Cdk2 F80C (Cdk2(C177A, F80C)): 0.003513; Rate constant with Cdk2 H71C (Cdk2(H71C) (C177A)): 0.001981"
C=CC(=O)Nc1cccc(C(F)(F)F)c1 [BN-80],0.0419,1.405,0.0419,0.3263,1.404,0.1284,1.308,0.1247,0.6024,0.01797,0.2072,0.006181,4.026,0.1201,0.5528,0.01649,0.4626,0.0138,0.02984,0.02983,"Rate constant with Cdk2 F80C (Cdk2(C177A, F80C)): 0.03902; Rate constant with Cdk2 H71C (Cdk2(H71C) (C177A)): 0.003721"

# Continued, in another order:
Rate constant with Cdk2 (k(Cdk2)) [2],"Rate enhancement, Cdk2 WT [2]",Rate constant with Cdk2 WT [2],k(Cdk2)/k(Cdk2_mut) rate enhancement [2],k(Cdk2)/k(GSH) rate enhancement [2],"Rate constant with Cdk2[C177A, F80C, K278C] (k(Cdk2_mut)) (Cdk2[C177A, F80C, K278C])","Rate enhancement, Cdk2 F80C (Cdk2(C177A, F80C))","Rate enhancement, Cdk2 H71C (Cdk2(H71C) (C177A))","Rate enhancement, Cdk2 S276C (Cdk2(S276C) (C177A))",Rate constant with Cdk2 S276C (Cdk2(S276C) (C177A)),"Rate enhancement, Cdk2 N272 (Cdk2(N272C) (C177A))",Rate constant with Cdk2 N272C (Cdk2(N272C) (C177A)),"Rate enhancement, Cdk2 T182C (Cdk2(T182C) (C177A))",Rate constant with Cdk2 T182C (Cdk2(T182C) (C177A)),"Rate enhancement, Cdk2 R122C (Cdk2(R122C) (C177A))",Rate constant with Cdk2 R122C (Cdk2(R122C) (C177A)),"Rate enhancement, Cdk2 S181C (Cdk2(S181C) (C177A))",Rate constant with Cdk2 S181C (Cdk2(S181C) (C177A)),Structure (SMILES),Rate constant with glutathione (k(GSH)) [1],Rate constant with Glutathione [1],further results
0.00872,0.5186,0.008718,1.989,0.8701,0.00438,1.811,0.8209,1.079,0.01813,0.06817,0.001146,3.848,0.06469,0.2694,0.004528,0.4258,0.007158,C=CC(=O)N1CCCC2(CCCc3ccccc32)C1 (stereo not drawn) [CA-084],0.01002,0.01681,"Rate constant with Cdk2 F80C (Cdk2(C177A, F80C)): 0.03044; Rate constant with Cdk2 H71C (Cdk2(H71C) (C177A)): 0.0138"
0.00145,0.5857,0.002317,0.9576,0.6367,0.00151,0,0,0.7543,0.002984,3.031,0.01199,3.971,0.01571,0.2819,0.001115,1.69,0.006686,C=CC(=O)N1CCC(c2nnc3n2CCC3)CC1 [CA-106],0.00227,0.003956,
0.00097,0.2251,0.000968,0.177,0.226,0.00547,2.22,1.165,1,0.004301,1.415,0.006086,13.66,0.05877,1.018,0.004377,14.88,0.06402,C=CC(=O)N1C(C(=O)c2ccccc2)C1c1ccccc1 (stereo not drawn) [CA-53],0.00428,0.004301,"Rate constant with Cdk2 F80C (Cdk2(C177A, F80C)): 0.009547; Rate constant with Cdk2 H71C (Cdk2(H71C) (C177A)): 0.005009"
0.0076,1.117,0.007599,1.056,1.112,0.00719,0.3927,1.062,1.169,0.007953,0.4,0.002721,7.042,0.0479,0.6453,0.004389,2.608,0.01774,C=CC(=O)N1CCN(c2cc(N3CCOCC3)ncn2)CC1 [CA-179],0.00683,0.006802,"Rate constant with Cdk2 F80C (Cdk2(C177A, F80C)): 0.002671; Rate constant with Cdk2 H71C (Cdk2(H71C) (C177A)): 0.007227"

# — US11415579B2, “Assay for measuring a rate of reaction between a target and a ligand candidate” (Imperial College Innovations Ltd., priority 2016, dated 2022)
